Numbers after ± are expanded uncertainties.
Assays:
[1] = xn = mol fraction of the nth substance listed; settings: 101 kPa, Liquid; for speed of sound: Frequency=2 MHz, Linear variable-path acoustic interferometer; for mass density: Vibrating tube method
[2] = 101 kPa, Liquid; for speed of sound: Frequency=2 MHz, Linear variable-path acoustic interferometer; for mass density: Vibrating tube method

Cc1ccccc1Cl [2-chlorotoluene] + CCCCCCCO
[1]
Settings | mass density, 298.15 K [kg/m3] | mass density, 303.15 K [kg/m3] | mass density, 308.15 K [kg/m3] | speed of sound, 298.15 K [m/s] | speed of sound, 303.15 K [m/s] | speed of sound, 308.15 K [m/s]
x1 = 0.0984 | 840.51 ± 0.16 | 836.79 ± 0.16 | 833.05 ± 0.16 | 1324.4 ± 1.9 | 1311 ± 1.9 | 1289.7 ± 1.9
x1 = 0.1921 | 861.75 ± 0.16 | 857.88 ± 0.16 | 853.98 ± 0.16 | 1320.1 ± 1.9 | 1306 ± 1.9 | 1284 ± 1.9
x1 = 0.2969 | 886.24 ± 0.16 | 882.16 ± 0.16 | 878.15 ± 0.16 | 1313.6 ± 1.9 | 1298.6 ± 1.9 | 1276.2 ± 1.9
x1 = 0.3983 | 910.69 ± 0.15 | 906.43 ± 0.15 | 902.26 ± 0.15 | 1306.5 ± 1.9 | 1290.7 ± 1.9 | 1268.5 ± 1.9
x1 = 0.4949 | 934.8 ± 0.15 | 930.38 ± 0.15 | 926.11 ± 0.15 | 1299.3 ± 1.9 | 1283.1 ± 1.9 | 1260.9 ± 1.9
x1 = 0.5961 | 960.97 ± 0.15 | 956.41 ± 0.15 | 952.02 ± 0.15 | 1293.5 ± 1.9 | 1276.2 ± 1.9 | 1254.8 ± 1.9
x1 = 0.7028 | 989.68 ± 0.14 | 985.06 ± 0.14 | 980.6 ± 0.14 | 1289.2 ± 1.9 | 1271.5 ± 1.9 | 1250.4 ± 1.9
x1 = 0.7968 | 1016.16 ± 0.15 | 1011.5 ± 0.15 | 1006.94 ± 0.14 | 1287.7 ± 1.9 | 1270.3 ± 1.9 | 1249.7 ± 1.9
x1 = 0.8993 | 1046.27 ± 0.16 | 1041.59 ± 0.15 | 1036.99 ± 0.15 | 1289.1 ± 1.9 | 1273.5 ± 1.9 | 1254.3 ± 1.9
x1 = 1 | 1077.38 ± 0.15 | 1072.8 ± 0.15 | 1068.21 ± 0.15 | 1299.8 ± 1.9 | 1283.6 ± 1.9 | 1265.6 ± 1.9

Cc1ccccc1Cl [2-chlorotoluene] + CCCCO
[1]
Settings | mass density, 298.15 K [kg/m3] | mass density, 303.15 K [kg/m3] | mass density, 308.15 K [kg/m3] | speed of sound, 298.15 K [m/s] | speed of sound, 303.15 K [m/s] | speed of sound, 308.15 K [m/s]
x1 = 0.0914 | 837.37 ± 0.17 | 833.28 ± 0.17 | 829.2 ± 0.17 | 1247.4 ± 1.8 | 1231.4 ± 1.8 | 1213.3 ± 1.8
x1 = 0.2026 | 873.25 ± 0.16 | 868.95 ± 0.17 | 864.69 ± 0.17 | 1255.5 ± 1.9 | 1238.2 ± 1.8 | 1219.2 ± 1.8
x1 = 0.2888 | 899.51 ± 0.16 | 895.11 ± 0.16 | 890.72 ± 0.16 | 1260.1 ± 1.9 | 1241.1 ± 1.9 | 1222.2 ± 1.8
x1 = 0.3958 | 930.38 ± 0.15 | 925.85 ± 0.15 | 921.35 ± 0.16 | 1264.2 ± 1.9 | 1244.1 ± 1.9 | 1224.3 ± 1.8
x1 = 0.4973 | 958.03 ± 0.15 | 953.44 ± 0.15 | 948.87 ± 0.15 | 1267.1 ± 1.9 | 1246 ± 1.9 | 1226 ± 1.8
x1 = 0.6021 | 985.11 ± 0.14 | 980.47 ± 0.14 | 975.89 ± 0.14 | 1269 ± 1.9 | 1249.2 ± 1.9 | 1227.4 ± 1.9
x1 = 0.6969 | 1008.43 ± 0.14 | 1003.83 ± 0.14 | 999.22 ± 0.14 | 1271.4 ± 1.9 | 1250.4 ± 1.9 | 1231 ± 1.8
x1 = 0.7892 | 1030.29 ± 0.15 | 1025.68 ± 0.14 | 1021.07 ± 0.14 | 1276.7 ± 1.9 | 1255.4 ± 1.9 | 1236.4 ± 1.8
x1 = 0.894 | 1054.17 ± 0.15 | 1049.55 ± 0.15 | 1044.94 ± 0.15 | 1285.6 ± 1.9 | 1266.4 ± 1.9 | 1247 ± 1.9
x1 = 1 | 1077.38 ± 0.15 | 1072.8 ± 0.15 | 1068.21 ± 0.15 | 1299.8 ± 1.9 | 1283.6 ± 1.9 | 1265.6 ± 1.9

CCCCO [butan-1-ol]
[2]
Settings | mass density [kg/m3] | speed of sound [m/s]
298.15 K | 805.95 ± 0.16 | 1238.9 ± 1.8
303.15 K | 802.11 ± 0.17 | 1223.4 ± 1.8
308.15 K | 798.24 ± 0.17 | 1206.8 ± 1.8

Cc1ccccc1Cl [2-chlorotoluene] + CCCO
[1]
Settings | mass density, 298.15 K [kg/m3] | mass density, 303.15 K [kg/m3] | mass density, 308.15 K [kg/m3] | speed of sound, 298.15 K [m/s] | speed of sound, 303.15 K [m/s] | speed of sound, 308.15 K [m/s]
x1 = 0.089 | 837.16 ± 0.18 | 832.98 ± 0.18 | 828.75 ± 0.18 | 1219 ± 1.8 | 1200.1 ± 1.8 | 1181.4 ± 1.8
x1 = 0.1947 | 877.01 ± 0.17 | 872.53 ± 0.17 | 868.14 ± 0.17 | 1232 ± 1.8 | 1212.4 ± 1.8 | 1192.8 ± 1.8
x1 = 0.2938 | 910.41 ± 0.16 | 905.71 ± 0.16 | 901.22 ± 0.16 | 1242.5 ± 1.9 | 1221.5 ± 1.8 | 1201.9 ± 1.8
x1 = 0.3841 | 937.91 ± 0.15 | 933.15 ± 0.15 | 928.51 ± 0.16 | 1249.2 ± 1.9 | 1228.7 ± 1.9 | 1207.8 ± 1.8
x1 = 0.4898 | 967.13 ± 0.14 | 962.37 ± 0.15 | 957.66 ± 0.15 | 1257 ± 1.9 | 1234.8 ± 1.9 | 1213.9 ± 1.8
x1 = 0.5918 | 992.79 ± 0.14 | 988 ± 0.14 | 983.25 ± 0.14 | 1262.5 ± 1.9 | 1240.5 ± 1.9 | 1219.2 ± 1.8
x1 = 0.6979 | 1017.16 ± 0.14 | 1012.42 ± 0.14 | 1007.7 ± 0.14 | 1269 ± 1.9 | 1246.3 ± 1.9 | 1225.2 ± 1.8
x1 = 0.7955 | 1037.96 ± 0.15 | 1033.25 ± 0.15 | 1028.56 ± 0.15 | 1275.3 ± 1.9 | 1253.4 ± 1.9 | 1234 ± 1.8
x1 = 0.8932 | 1057.42 ± 0.15 | 1052.78 ± 0.15 | 1048.12 ± 0.15 | 1284.4 ± 1.9 | 1264.7 ± 1.9 | 1245.4 ± 1.9
x1 = 1 | 1077.38 ± 0.15 | 1072.8 ± 0.15 | 1068.21 ± 0.15 | 1299.8 ± 1.9 | 1283.6 ± 1.9 | 1265.6 ± 1.9

CCCCCCCO [heptan-1-ol] + Cc1ccccc1Cl
[1], x2 = 0
Settings | mass density [kg/m3] | speed of sound [m/s]
298.15 K | 818.79 ± 0.16 | 1326.5 ± 1.9
303.15 K | 815.21 ± 0.16 | 1313.6 ± 1.9
308.15 K | 811.62 ± 0.16 | 1293.1 ± 1.9

CCCCCO [pentan-1-ol] + Cc1ccccc1Cl
[1], x2 = 0
Settings | mass density [kg/m3] | speed of sound [m/s]
298.15 K | 810.82 ± 0.24 | 1276.2 ± 2.1
303.15 K | 807.1 ± 0.24 | 1259.5 ± 2
308.15 K | 803.38 ± 0.24 | 1248.1 ± 2

CCCCO [butan-1-ol] + Cc1ccccc1Cl
[1], x2 = 0
Settings | mass density [kg/m3] | speed of sound [m/s]
298.15 K | 805.95 ± 0.16 | 1238.9 ± 1.8
303.15 K | 802.11 ± 0.17 | 1223.4 ± 1.8
308.15 K | 798.24 ± 0.17 | 1206.8 ± 1.8

CCCO [propan-1-ol] + Cc1ccccc1Cl
[1], x2 = 0
Settings | mass density [kg/m3] | speed of sound [m/s]
298.15 K | 799.65 ± 0.17 | 1206.5 ± 1.8
303.15 K | 795.65 ± 0.17 | 1188.6 ± 1.8
308.15 K | 791.65 ± 0.17 | 1171.8 ± 1.8
